Data: patent US11149031B2, “Substituted N-(3-fluoropropyl)-pyrrolidine compounds, processes for their preparation and therapeutic uses thereof” (SANOFI, priority 2016, dated 2021)
Like-named read-outs stand apart in the source and are kept apart here.

Columns and labels:
[1] = target: His6-ERα298-554 WT (ERα ligand-binding domain) (Homo sapiens (Human), UniProt P03372); experiment: Test A: biochemical antagonist activity, LanthaScreen TR-FRET ERα coactivator assay, WT; conditions: read-out: Antagonism WT IC50
Summary of the method: (§1)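 His6-ERα LBD (0.5 nM) with 0.5 nM Tb-anti-His6 antibody, 250 nM PGC1a peptide and 3 nM (or 10 nM) estradiol in 100 mM potassium phosphate pH 7.4 with 5 mM DTT, incubated overnight at room temperature with compound.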

[2] = target: His6-ERα298-554 D538G mutant (ERα ligand-binding domain) (Homo sapiens (Human), UniProt P03372, D538G); experiment: Test A: biochemical antagonist activity, LanthaScreen TR-FRET ERα coactivator assay, D538G mutant; conditions: read-out: Antagonism D538G IC50
Summary of the method: as §1

[3] = target: His6-ERα298-554 Y537S mutant (ERα ligand-binding domain) (Homo sapiens (Human), UniProt P03372, Y537S); experiment: Test A: biochemical antagonist activity, LanthaScreen TR-FRET ERα coactivator assay, Y537S mutant; conditions: read-out: Antagonism Y537S IC50
Summary of the method: as §1

[4] = test system: MCF7 cells (breast tumor cells) WT; experiment: Test B: cell proliferation/viability assay (CellTiter-Glo) on MCF7 WT; format: cell-based; conditions: 7 days of compound exposure
Summary of the method: (§2)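 Seed cells in phenol red-free MEM plus 5% charcoal dextran-stripped FBS. Next day add compound, 9-point 1:5 series, 3-0.000001 μM final. After 7 days, add CellTiter-Glo, read luminescence, and normalise to untreated after subtracting cell-free background.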

[5] = test system: MCF7 cells expressing mutant estrogen receptor Tyr 537 Ser; experiment: Test B: cell proliferation/viability assay (CellTiter-Glo) on MCF7 Tyr 537 Ser mutant; format: cell-based; conditions: MCF7 cells expressing ER Tyr 537 Ser mutant, 7 days of compound exposure, read-out: proliferation MCF7 Y537S IC50
Summary of the method: as §2

[6] = test system: MCF7 cells expressing mutant estrogen receptor Asp 538 Gly; experiment: Test B: cell proliferation/viability assay (CellTiter-Glo) on MCF7 Asp 538 Gly mutant; format: cell-based; conditions: MCF7 cells expressing ER Asp 538 Gly mutant, 7 days of compound exposure, read-out: proliferation MCF7 D538G IC50
Summary of the method: as §2

ERα in MCF7 cells = ERα in MCF7 cells (Homo sapiens (Human), UniProt P03372); experiment: Test C: estrogen receptor degradation activity, ERα in cell western assay in MCF7 cells; format: cell-based; conditions: for DC50: 4 hours post compound addition, ERα in cell western, read-out: Degradation IC50; for % Degradation at 3 μM: 4 hours, relative to fulvestrant
Summary of the method: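 ERα level is read as integrated green fluorescence, with DNA taken from red Syto-64 signal, after MCF7 cells are exposed to compound for 4 hours. Cells grow in hormone-depleted medium (5% charcoal-dextran stripped FBS, no phenol red); fulvestrant at 0.1 μM is the positive control.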

[7] = asterisk (*): protocol using 10 nM estradiol

His6-ERα298-554 D538G mutant (ERα ligand-binding domain), sequence (P03372 298-554 D538G): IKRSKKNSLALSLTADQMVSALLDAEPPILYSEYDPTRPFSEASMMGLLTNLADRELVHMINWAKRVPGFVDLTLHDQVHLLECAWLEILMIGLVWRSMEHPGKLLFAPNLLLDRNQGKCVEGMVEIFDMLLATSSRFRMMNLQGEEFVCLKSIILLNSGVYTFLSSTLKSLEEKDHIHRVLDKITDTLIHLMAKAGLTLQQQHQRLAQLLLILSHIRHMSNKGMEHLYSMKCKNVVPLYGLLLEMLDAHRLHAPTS
His6-ERα298-554 Y537S mutant (ERα ligand-binding domain), sequence (P03372 298-554 Y537S): as the sequence (P03372 298-554 D538G) above, with Y240S, G241D counted along it
His6-ERα298-554 WT (ERα ligand-binding domain), sequence (P03372 298-554): as the sequence (P03372 298-554 D538G) above, with G241D counted along it
ERα in MCF7 cells, sequence (P03372 whole entry): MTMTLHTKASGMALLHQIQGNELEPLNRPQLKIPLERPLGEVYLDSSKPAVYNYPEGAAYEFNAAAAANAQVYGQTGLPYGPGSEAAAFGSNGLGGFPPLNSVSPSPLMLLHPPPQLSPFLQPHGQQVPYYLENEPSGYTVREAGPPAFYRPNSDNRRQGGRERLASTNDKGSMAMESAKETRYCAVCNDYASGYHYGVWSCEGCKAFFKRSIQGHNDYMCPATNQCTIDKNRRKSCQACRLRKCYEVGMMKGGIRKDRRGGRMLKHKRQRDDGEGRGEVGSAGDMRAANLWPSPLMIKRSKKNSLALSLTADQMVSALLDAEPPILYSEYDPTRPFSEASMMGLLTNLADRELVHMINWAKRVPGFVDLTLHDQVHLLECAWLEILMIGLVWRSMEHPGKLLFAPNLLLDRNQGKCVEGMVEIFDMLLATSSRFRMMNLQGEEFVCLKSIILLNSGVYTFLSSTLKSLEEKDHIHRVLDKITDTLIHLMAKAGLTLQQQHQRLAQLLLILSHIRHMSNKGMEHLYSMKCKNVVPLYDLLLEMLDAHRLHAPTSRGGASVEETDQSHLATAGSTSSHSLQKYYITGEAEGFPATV

Row | Structure (SMILES) | IC50 [1, 7] [nM] | IC50 [2, 7] [nM] | IC50 [3, 7] [nM] | IC50 ([4]; Homo sapiens, MCF7, 168 h) [nM] | IC50 ([5]; Homo sapiens, MCF7, 168 h) [nM] | IC50 ([6]; Homo sapiens, MCF7, 168 h) [nM] | DC50 (ERα in MCF7 cells) [nM] | % Degradation at 3 μM (ERα in MCF7 cells) [%] | IC50 ([1]; protocol with 3 nM estradiol) [nM] | IC50 ([2]; protocol with 3 nM estradiol) [nM] | IC50 ([3]; protocol with 3 nM estradiol) [nM] | IC50 [4] [nM] | IC50 [5] [nM] | IC50 [6] [nM]
1 | Oc1ccc2c(c1)C(c1ccc(O[C@H]3CCN(CCCF)C3)cc1)=C(c1ccc(OC(F)(F)F)cc1F)CC2 [Example 10, 8-[4-[(3S)-1-(3-fluoropropyl)pyrrolidin-3-yl]oxyphenyl]-7-[2-fluoro-4-(trifluoromethoxy)phenyl]-5,6-dihydronaphthalen-2-ol] | 1270 | > 4000 | > 4000 | 85 | > 999 | 29 | 15 | 78 |  |  |  |  |  | 
2 | CCOc1ccc(C2=C(c3ccc(O[C@H]4CCN(CCCF)C4)nc3)c3ccc(O)cc3SC2)c(F)n1 [Example 79, 3-(6-ethoxy-2-fluoro-3-pyridyl)-4-[6-[(3S)-1-(3-fluoropropyl)pyrrolidin-3-yl]oxy-3-pyridyl]-2H-thiochromen-7-ol] | 0.5 | 6 | 5 | 0.3 | 0.8 | 5 | 0.2 | 89 |  |  |  |  |  | 
3 | Cc1c(O)ccc2c1OCCC(c1ccc3cc[nH]c3c1)=C2c1ccc(O[C@H]2CCN(CCCF)C2)cc1 [Example 129, 5-[4-[(3S)-1-(3-fluoropropyl)pyrrolidin-3-yl]oxyphenyl]-4-(1H-indol-6-yl)-9-methyl-2,3-dihydro-1-benzoxepin-8-ol] |  |  |  | 245 | > 999 | 456 | 44 | 75 | 502 | > 4000 | 2680 |  |  | 
4 | Cc1ccc(C2=C(c3ccc(O[C@H]4CCN(CCCF)C4)nc3)c3ccc(O)cc3CCC2)c(F)c1 [Example 237, 6-(2-fluoro-4-methyl-phenyl)-5-[6-[(3S)-1-(3-fluoropropyl)pyrrolidin-3-yl]oxy-3-pyridyl]-8,9-dihydro-7H-benzo[7]annulen-2-ol] | 0.6 | 7 | 5 | 0.3 | 5 | 0.7 | 0.2 | 92 |  |  |  |  |  | 
5 | Oc1cc2c(cc1F)C(c1ccc(O[C@H]3CCN(CCCF)C3)cc1)=C(c1ccc3occc3c1)CCO2 [Example 156, 4-(benzofuran-5-yl)-7-fluoro-5-[4-[(3S)-1-(3-fluoropropyl)pyrrolidin-3-yl]oxyphenyl]-2,3-dihydro-1-benzoxepin-8-ol] | 19 | 409 | 254 | 0.6 | 14 | 2 | 0.4 | 85 |  |  |  |  |  | 
6 | Oc1ccc2c(c1)CCCC(c1ccc(Cl)cc1Cl)=C2c1ccc(N[C@H]2CCN(CCCF)C2)cc1 [Example 85, 6-(2,4-dichlorophenyl)-5-[4-[[(3S)-1-(3-fluoropropyl)pyrrolidin-3-yl]amino]phenyl]-8,9-dihydro-7H-benzo[7]annulen-2-ol] | 1 | 21 | 15 | 0.4 | 7 | 0.7 | 1 | 86 |  |  |  |  |  | 
7 | Cc1ccc(C2=C(c3ccc(O[C@H]4CCN(CCCF)C4)cc3)c3ccc(O)cc3SCC2)c(F)c1 [Example 164, 4-(2-fluoro-4-methyl-phenyl)-5-[4-[(3S)-1-(3-fluoropropyl)pyrrolidin-3-yl]oxyphenyl]-2,3-dihydro-1-benzothiepin-8-ol] |  |  |  | 0.6 | 5 | 0.6 | 0.5 | 91 | 3 | 13 | 9 |  |  | 
8 | [O-][S+]1CCC(c2ccc(OC(F)(F)F)cc2)=C(c2ccc(O[C@H]3CCN(CCCF)C3)cc2)c2ccc(O)cc21 (single isomer, unassigned) [Example 226] | > 4000 | > 4000 | > 4000 |  |  |  | 103 | 93 |  |  |  | 87 | > 999 | 288
9 | CC1Cc2c([nH]c3ccccc23)C(c2c(F)cc(O[C@H]3CCN(CCCF)C3)cc2F)N1CC(C)(C)F (single isomer, unassigned) [Example 256] | 6 | 120 | 101 |  |  |  | 0.2 | 91 |  |  |  | 0.1 | 2 | 0.7
10 | Oc1ccc2c(c1)OCCC(c1ccc(OCCN3CCCC3)cc1)=C2c1ccc(O[C@H]2CCN(CCCF)C2)cc1 [Example 147, 5-[4-[(3S)-1-(3-fluoropropyl)pyrrolidin-3-yl]oxyphenyl]-4-[4-(2-pyrrolidin-1-ylethoxy)phenyl]-2,3-dihydro-1-benzoxepin-8-ol] | 390 | > 4000 | 3810 | 52 | > 999 | 90 | 49 | 77 |  |  |  |  |  | 
11 | Cc1ccc(C2=C(c3ccc(O[C@H]4CCN(CCCF)C4)cc3)c3ccc(O)cc3OCC2)c(F)c1 [Example 96, 4-(2-fluoro-4-methyl-phenyl)-5-[4-[(3S)-1-(3-fluoropropyl)pyrrolidin-3-yl]oxyphenyl]-2,3-dihydro-1-benzoxepin-8-ol] |  |  |  | 2 | 16 | 5 | 0.6 | 91 | 7 | 47 | 19 |  |  | 
12 | CCOc1ccc(C2=C(c3cnc(O[C@H]4CCN(CCCF)C4)nc3)c3ccc(O)cc3CCC2)c(F)n1 [Example 251, 6-(6-ethoxy-2-fluoro-3-pyridyl)-5-[2-[(3S)-1-(3-fluoropropyl)pyrrolidin-3-yl]oxypyrimidin-5-yl]-8,9-dihydro-7H-benzo[7]annulen-2-ol] | 4 | 104 | 57 | 0.4 | 5 | 0.5 | 0.5 | 89 |  |  |  |  |  | 
13 | Oc1ccc2c(c1)SCCC(c1ccc3c(c1)CCN3)=C2c1ccc(O[C@H]2CCN(CCCF)C2)cc1 [Example 176, 5-[4-[(3S)-1-(3-fluoropropyl)pyrrolidin-3-yl]oxyphenyl]-4-indolin-5-yl-2,3-dihydro-1-benzothiepin-8-ol] |  |  |  | 3 | 48 | 9 | 0.2 | 85 | 6 | 28 | 20 |  |  | 
14 | CC1(C)CNc2ccc(C3=C(c4ccc(O[C@H]5CCN(CCCF)C5)cc4)c4ccc(O)cc4SC3)cc21 [Example 73, 3-(3,3-dimethylindolin-5-yl)-4-[4-[(3S)-1-(3-fluoropropyl)pyrrolidin-3-yl]oxyphenyl]-2H-thiochromen-7-ol] | 1110 | > 4000 | > 4000 | 95 | 377 | 119 | 6 | 86 |  |  |  |  |  | 
15 | CCOc1cc(Cl)ccc1C1=C(c2ccc(O[C@H]3CCN(CCCF)C3)cc2)c2ccc(O)cc2SC1 [Example 43, 3-(4-chloro-2-ethoxy-phenyl)-4-[4-[(3S)-1-(3-fluoropropyl)pyrrolidin-3-yl]oxyphenyl]-2H-thiochromen-7-ol] | 96 | 1140 | 673 | 0.4 | 11 | 1 | 0.8 | 97 |  |  |  |  |  | 
16 | Oc1ccc2c(c1)SCC(c1ccc(CF)cc1)=C2c1ccc(O[C@H]2CCN(CCCF)C2)cc1 [Example 61, 3-[4-(fluoromethyl)phenyl]-4-[4-[(3S)-1-(3-fluoropropyl)pyrrolidin-3-yl]oxyphenyl]-2H-thiochromen-7-ol] | 37 | 686 | 437 | 2 | 17 | 0.6 | 0.2 | 82 |  |  |  |  |  | 
